Experimental data: patent US20230129935A1, “SYSTEM, PRODUCT AND METHOD FOR MAINTAINING THE VAGINAL MICROBIOME” (VAGINAL BIOME SCIENCE, INC., priority 2021, published 2023)

Assays:
HIV = assay: Killing of HIV and other pathogens by lubricant acidified with lactic acid; conditions: vaginal lubricant including substantially racemic lactic acid, matched to vaginal acidity
[1] = system: herpes simplex virus (HSV-2); conditions: after a single exposure; cited from earlier work

CC(O)C(=O)O (racemic) [lactic acid]
killing of HIV and many other pathogens (HIV): kills HIV and many other pathogens

polyethylene glycol [polyethylene glycol (PEG-8)]
susceptibility to herpes simplex virus (HSV-2) [1]: markedly increased susceptibility
